In the kinase profiling compilation of Christmann-Franck et al. (2016):

Tests used:
Test in all cases: Free Choice Kinase Assay Projects, Flashplate
[1] = target: AKT1 (human) (UniProt P31749); settings: compound 10.0 µM; ATP 3 µM
[2] = target: AURKA (human) (UniProt O14965); settings: compound 10.0 µM; ATP 10 µM
[3] = target: AURKB (human) (UniProt Q96GD4); settings: compound 10.0 µM; ATP 10 µM
[4] = target: AXL (human) (UniProt P30530); settings: compound 10.0 µM; ATP 0.3 µM
[5] = target: CDK2 CCNA2 (human) (UniProt P24941+P20248); settings: compound 10.0 µM; ATP 0.3 µM
[6] = target: CDK4 CCND1 (human) (UniProt P11802+P24385); settings: compound 10.0 µM; ATP 3 µM
[7] = target: CSNK2A1 (human) (UniProt P68400); settings: compound 10.0 µM; ATP 0.1 µM
[8] = target: EGFR (human) (UniProt P00533); settings: compound 10.0 µM; ATP 0.3 µM
[9] = target: EPHB4 (human) (UniProt P54760); settings: compound 10.0 µM; ATP 1 µM
[10] = target: ERBB2 (human) (UniProt P04626); settings: compound 10.0 µM; ATP 1 µM
[11] = target: IGF1R (human) (UniProt P08069); settings: compound 10.0 µM; ATP 1 µM
[12] = target: KDR (human) (UniProt P35968); settings: compound 10.0 µM; ATP 1 µM
[13] = target: MAP3K8 (human) (UniProt P41279); settings: compound 10.0 µM; ATP 3 µM
[14] = target: MAPK10 (human) (UniProt P53779); settings: compound 10.0 µM; ATP 0.3 µM
[15] = target: MAPK14 (human) (UniProt Q16539); settings: compound 10.0 µM; ATP 1 µM
[16] = target: MET (human) (UniProt P08581); settings: compound 10.0 µM; ATP 0.3 µM
[17] = target: NUAK1 (human) (UniProt O60285); settings: compound 10.0 µM; ATP 1 µM
[18] = target: PDGFRB (human) (UniProt P09619); settings: compound 10.0 µM; ATP 0.3 µM
[19] = target: PLK1 (human) (UniProt P53350); settings: compound 10.0 µM; ATP 1 µM
[20] = target: PLK4 (human) (UniProt O00444); settings: compound 10.0 µM; ATP 0.3 µM
[21] = target: PTK2 (human) (UniProt Q05397); settings: compound 10.0 µM; ATP 1 µM
[22] = target: SRC (human) (UniProt P12931); settings: compound 10.0 µM; ATP 0.3 µM
[23] = target: TEK (human) (UniProt Q02763); settings: compound 10.0 µM; ATP 1 µM

Sequence of CDK4 CCND1 (human) (P11802 whole entry, looked up): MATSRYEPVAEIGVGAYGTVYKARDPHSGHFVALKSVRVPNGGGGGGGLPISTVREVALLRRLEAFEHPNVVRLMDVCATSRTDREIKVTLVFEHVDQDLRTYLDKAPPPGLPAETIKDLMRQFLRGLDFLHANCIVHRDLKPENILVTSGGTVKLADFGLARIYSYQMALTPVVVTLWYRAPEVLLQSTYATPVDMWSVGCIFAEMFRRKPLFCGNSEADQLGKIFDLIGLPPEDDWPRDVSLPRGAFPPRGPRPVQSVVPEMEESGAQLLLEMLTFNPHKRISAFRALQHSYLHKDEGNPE
Sequence of CDK4 CCND1 (human) (P24385 whole entry, looked up): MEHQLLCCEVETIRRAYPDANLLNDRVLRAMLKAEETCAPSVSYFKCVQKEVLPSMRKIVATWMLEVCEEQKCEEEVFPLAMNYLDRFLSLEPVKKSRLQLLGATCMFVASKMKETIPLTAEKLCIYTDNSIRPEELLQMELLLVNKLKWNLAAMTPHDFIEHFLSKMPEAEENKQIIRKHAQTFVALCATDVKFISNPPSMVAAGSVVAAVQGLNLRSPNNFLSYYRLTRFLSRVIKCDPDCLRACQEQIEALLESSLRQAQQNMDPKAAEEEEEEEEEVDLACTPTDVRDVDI
Sequence of AURKB (human) (Q96GD4 whole entry, looked up): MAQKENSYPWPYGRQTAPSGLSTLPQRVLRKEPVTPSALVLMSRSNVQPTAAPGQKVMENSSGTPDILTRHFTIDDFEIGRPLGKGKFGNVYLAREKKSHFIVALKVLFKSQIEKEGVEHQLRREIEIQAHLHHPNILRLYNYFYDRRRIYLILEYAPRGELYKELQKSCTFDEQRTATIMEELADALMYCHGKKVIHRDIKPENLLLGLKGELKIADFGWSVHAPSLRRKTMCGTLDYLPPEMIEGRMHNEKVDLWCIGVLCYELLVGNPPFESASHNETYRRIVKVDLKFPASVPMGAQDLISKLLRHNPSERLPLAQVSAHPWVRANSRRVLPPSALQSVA
Sequence of AURKA (human) (O14965 whole entry, looked up): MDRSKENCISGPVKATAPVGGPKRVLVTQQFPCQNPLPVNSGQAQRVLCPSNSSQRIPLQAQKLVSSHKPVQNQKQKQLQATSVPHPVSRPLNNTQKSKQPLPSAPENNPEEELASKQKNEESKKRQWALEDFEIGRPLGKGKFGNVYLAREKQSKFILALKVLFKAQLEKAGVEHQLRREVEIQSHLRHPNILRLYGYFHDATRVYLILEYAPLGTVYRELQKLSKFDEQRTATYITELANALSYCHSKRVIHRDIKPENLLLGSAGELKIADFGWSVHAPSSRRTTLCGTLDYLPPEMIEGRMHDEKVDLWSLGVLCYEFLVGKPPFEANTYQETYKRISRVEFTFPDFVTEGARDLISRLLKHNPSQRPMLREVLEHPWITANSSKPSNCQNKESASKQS
Sequence of MAP3K8 (human) (P41279 whole entry, looked up): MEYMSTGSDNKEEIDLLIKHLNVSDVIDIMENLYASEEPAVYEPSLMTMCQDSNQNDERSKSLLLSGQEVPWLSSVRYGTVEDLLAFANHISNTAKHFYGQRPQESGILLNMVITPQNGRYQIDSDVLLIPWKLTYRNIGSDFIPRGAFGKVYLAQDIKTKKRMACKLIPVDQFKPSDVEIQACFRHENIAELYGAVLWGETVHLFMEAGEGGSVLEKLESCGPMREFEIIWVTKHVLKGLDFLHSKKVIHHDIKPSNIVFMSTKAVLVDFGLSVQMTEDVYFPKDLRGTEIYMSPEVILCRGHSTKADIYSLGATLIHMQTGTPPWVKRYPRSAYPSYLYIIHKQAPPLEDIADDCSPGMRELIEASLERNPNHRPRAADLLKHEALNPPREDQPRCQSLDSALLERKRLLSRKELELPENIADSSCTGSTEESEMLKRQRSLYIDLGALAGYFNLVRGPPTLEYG
Sequence of NUAK1 (human) (O60285 whole entry, looked up): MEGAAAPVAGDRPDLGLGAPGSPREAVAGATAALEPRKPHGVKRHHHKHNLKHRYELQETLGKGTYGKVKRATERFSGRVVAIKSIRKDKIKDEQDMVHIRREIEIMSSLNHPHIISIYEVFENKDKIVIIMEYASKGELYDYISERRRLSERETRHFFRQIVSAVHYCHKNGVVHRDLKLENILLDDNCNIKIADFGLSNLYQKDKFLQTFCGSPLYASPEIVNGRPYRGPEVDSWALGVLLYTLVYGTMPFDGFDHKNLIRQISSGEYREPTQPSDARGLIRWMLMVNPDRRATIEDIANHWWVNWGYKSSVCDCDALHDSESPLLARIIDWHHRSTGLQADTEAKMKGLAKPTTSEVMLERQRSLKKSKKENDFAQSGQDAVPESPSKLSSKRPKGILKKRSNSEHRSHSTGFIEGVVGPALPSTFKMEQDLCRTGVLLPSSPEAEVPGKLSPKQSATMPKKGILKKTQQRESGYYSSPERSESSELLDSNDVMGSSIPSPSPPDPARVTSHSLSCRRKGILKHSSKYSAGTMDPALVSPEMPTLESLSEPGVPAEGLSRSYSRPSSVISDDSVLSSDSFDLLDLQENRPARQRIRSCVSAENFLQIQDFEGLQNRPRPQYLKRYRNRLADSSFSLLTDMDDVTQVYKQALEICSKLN
Sequence of PLK1 (human) (P53350 whole entry, looked up): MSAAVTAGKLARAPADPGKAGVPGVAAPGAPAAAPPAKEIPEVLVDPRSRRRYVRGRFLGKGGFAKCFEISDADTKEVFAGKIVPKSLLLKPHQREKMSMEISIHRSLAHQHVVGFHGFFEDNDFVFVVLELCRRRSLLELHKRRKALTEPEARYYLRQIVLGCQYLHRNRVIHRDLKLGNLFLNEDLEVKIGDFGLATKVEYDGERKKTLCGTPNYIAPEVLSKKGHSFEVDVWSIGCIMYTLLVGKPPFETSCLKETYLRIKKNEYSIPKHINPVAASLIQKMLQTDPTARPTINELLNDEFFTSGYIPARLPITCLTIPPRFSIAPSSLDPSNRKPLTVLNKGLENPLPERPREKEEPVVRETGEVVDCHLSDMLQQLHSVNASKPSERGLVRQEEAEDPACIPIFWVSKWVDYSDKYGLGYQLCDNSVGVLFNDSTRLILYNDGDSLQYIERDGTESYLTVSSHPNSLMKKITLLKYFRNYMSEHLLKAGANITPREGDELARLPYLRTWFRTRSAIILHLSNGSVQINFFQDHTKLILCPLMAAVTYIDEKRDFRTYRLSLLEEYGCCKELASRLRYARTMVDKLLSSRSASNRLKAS
Sequence of MAPK10 (human) (P53779 whole entry, looked up): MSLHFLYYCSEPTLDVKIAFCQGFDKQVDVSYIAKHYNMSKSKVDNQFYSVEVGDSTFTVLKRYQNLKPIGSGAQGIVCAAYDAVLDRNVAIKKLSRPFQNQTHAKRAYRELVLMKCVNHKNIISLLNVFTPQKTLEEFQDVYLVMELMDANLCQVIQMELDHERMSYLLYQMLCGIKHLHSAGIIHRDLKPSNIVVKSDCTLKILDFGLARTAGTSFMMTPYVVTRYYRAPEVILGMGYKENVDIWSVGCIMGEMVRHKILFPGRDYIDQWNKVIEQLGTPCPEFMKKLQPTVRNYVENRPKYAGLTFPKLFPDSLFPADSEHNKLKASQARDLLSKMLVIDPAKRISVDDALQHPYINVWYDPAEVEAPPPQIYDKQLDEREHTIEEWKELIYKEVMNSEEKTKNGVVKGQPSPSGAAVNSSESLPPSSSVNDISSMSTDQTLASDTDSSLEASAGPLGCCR
Sequence of PTK2 (human) (Q05397 whole entry, looked up): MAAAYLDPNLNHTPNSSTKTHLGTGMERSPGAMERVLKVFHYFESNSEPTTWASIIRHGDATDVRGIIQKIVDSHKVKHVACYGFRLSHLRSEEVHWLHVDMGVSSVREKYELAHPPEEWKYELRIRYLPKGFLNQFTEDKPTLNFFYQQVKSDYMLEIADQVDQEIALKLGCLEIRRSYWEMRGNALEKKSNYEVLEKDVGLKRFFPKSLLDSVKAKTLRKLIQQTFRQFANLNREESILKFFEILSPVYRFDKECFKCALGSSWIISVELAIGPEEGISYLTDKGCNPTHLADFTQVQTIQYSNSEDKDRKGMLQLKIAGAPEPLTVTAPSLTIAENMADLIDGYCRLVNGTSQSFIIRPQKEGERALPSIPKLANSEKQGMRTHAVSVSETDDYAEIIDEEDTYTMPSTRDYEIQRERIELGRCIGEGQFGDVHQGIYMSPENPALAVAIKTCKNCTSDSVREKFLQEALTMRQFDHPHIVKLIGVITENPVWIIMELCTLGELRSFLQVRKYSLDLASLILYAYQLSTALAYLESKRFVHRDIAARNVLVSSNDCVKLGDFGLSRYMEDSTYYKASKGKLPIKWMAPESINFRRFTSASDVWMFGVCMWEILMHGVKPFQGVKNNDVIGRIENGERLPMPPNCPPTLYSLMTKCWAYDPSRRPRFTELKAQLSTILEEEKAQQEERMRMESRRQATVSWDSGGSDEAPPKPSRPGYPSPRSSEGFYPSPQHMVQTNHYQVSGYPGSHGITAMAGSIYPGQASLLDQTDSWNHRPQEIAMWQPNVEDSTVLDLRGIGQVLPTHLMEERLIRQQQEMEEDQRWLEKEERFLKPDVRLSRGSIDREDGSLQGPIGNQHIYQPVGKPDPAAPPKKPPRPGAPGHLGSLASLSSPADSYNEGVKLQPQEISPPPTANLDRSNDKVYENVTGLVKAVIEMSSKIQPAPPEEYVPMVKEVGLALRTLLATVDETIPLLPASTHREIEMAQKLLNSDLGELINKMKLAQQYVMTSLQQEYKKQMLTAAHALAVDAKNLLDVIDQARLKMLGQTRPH
Sequence of MAPK14 (human) (Q16539 whole entry, looked up): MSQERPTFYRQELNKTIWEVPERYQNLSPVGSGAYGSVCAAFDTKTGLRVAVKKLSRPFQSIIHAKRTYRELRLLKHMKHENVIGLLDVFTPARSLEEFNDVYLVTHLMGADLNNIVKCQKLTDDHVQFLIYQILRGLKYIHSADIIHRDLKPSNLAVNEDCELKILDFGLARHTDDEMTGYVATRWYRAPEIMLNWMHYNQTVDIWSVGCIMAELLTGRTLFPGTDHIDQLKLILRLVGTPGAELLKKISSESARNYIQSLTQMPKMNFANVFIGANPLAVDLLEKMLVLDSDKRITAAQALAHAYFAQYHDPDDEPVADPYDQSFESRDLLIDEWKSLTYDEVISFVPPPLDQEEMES

Structure (SMILES) | residual activity [1] [%] | residual activity [2] [%] | residual activity [3] [%] | residual activity [4] [%] | residual activity [5] [%] | residual activity [6] [%] | residual activity [7] [%] | residual activity [8] [%] | residual activity [9] [%] | residual activity [10] [%] | residual activity [11] [%] | residual activity [12] [%] | residual activity [13] [%] | residual activity [14] [%] | residual activity [15] [%] | residual activity [16] [%] | residual activity [17] [%] | residual activity [18] [%] | residual activity [19] [%] | residual activity [20] [%] | also measured
CC(Nc1cc(-c2nc(SCc3ccccc3)[nH]c2-c2ccc(F)cc2)ccn1)c1ccccc1 (stereo not given) | 66 | 64 | 58 | 44 | 17 | 27 | 78 | 16 | 31 | 21 | 20 | 39 | 50 | 20 | 3 | 43 | 43 | 45 | 38 | 17 | residual activity [21]: 82%; residual activity [22]: 14%; residual activity [23]: 13%
CSc1nc(-c2ccnc(NC(=O)C3CC3)c2)c(-c2ccc(F)cc2)n1C | 121 | 31 | 47 | 18 | 234 | 109 | 89 | 11 | 9 | 17 | 53 | 2 | 104 | 11 | 1 | 81 | 109 | 29 | 114 | 56 | residual activity [21]: 53%; residual activity [22]: 13%; residual activity [23]: 8%
CSc1ccc(CSc2nc(-c3ccncc3)c(-c3ccc(Br)cc3)[nH]2)cc1 | 147 | 78 | 63 | 85 | 64 | 87 | 71 | 49 | 56 | 31 | 33 | 51 | 79 | 64 | 11 | 54 | 94 | 54 | 94 | 33 | residual activity [21]: 122%; residual activity [22]: 30%; residual activity [23]: 21%
Fc1ccc(-c2[nH]c(SCCCc3ccccc3)nc2-c2ccncc2)cc1 | 98 | 88 | 88 | 71 | 54 | 99 | 87 | 31 | 55 | 30 | 49 | 52 | 85 | 56 | 10 | 81 | 89 | 80 | 92 | 74 | residual activity [21]: 99%; residual activity [22]: 33%; residual activity [23]: 65%
On1c(CCc2ccccc2)nc(-c2ccncc2)c1-c1ccc(F)cc1 | 144 | 44 | 41 | 79 | 54 | 84 | 82 | 1 | 32 | 2 | 17 | 4 | 78 | 14 | 0 | 44 | 100 | 37 | 100 | 16 | residual activity [21]: 87%; residual activity [22]: 4%; residual activity [23]: 18%
CSc1nc(-c2ccnc(NC(=O)C3CCCC3)c2)c(-c2ccc(F)cc2)n1C | 100 | 72 | 92 | 62 | 88 | 105 | 91 | 30 | 39 | 48 | 53 | 49 | 88 | 16 | 3 | 91 | 100 | 65 | 107 | 46 | residual activity [21]: 80%; residual activity [22]: 43%; residual activity [23]: 35%
Oc1ccccc1CSc1nc(-c2ccncc2)c(-c2ccc(F)cc2)[nH]1 | 137 | 74 | 74 | 96 | 54 | 79 | 90 | 11 | 44 | 11 | 49 | 42 | 91 | 46 | 6 | 71 | 108 | 64 | 104 | 38 | residual activity [21]: 128%; residual activity [22]: 32%; residual activity [23]: 32%
Oc1cccc(CSc2nc(-c3ccncc3)c(-c3ccc(F)cc3)[nH]2)c1 | 144 | 52 | 55 | 76 | 126 | 121 | 95 | 3 | 35 | 2 | 79 | 7 | 91 | 17 | 2 | 58 | 121 | 35 | 103 | 42 | residual activity [21]: 88%; residual activity [22]: 12%; residual activity [23]: 18%
Fc1ccc(-c2[nH]c(SCc3ccccc3)nc2-c2ccncc2)cc1 | 110 | 79 | 80 | 82 | 77 | 101 | 94 | 19 | 49 | 23 | 72 | 58 | 76 | 41 | 3 | 89 | 93 | 76 | 94 | 71 | residual activity [21]: 86%; residual activity [22]: 42%; residual activity [23]: 50%
CSc1nc(-c2ccnc(NC(C)=O)c2)c(-c2ccc(F)cc2)n1C | 154 | 58 | 78 | 52 | 111 | 102 | 88 | 17 | 32 | 31 | 78 | 13 | 74 | 11 | 1 | 79 | 104 | 26 | 109 | 70 | residual activity [21]: 71%; residual activity [22]: 29%; residual activity [23]: 24%
